Reference: publication PMC11392244, “Characterization of a unique catechol-O-methyltransferase as a molecular drug target in parasitic filarial nematodes” (PLOS Neglected Tropical Diseases, 2024)
Several values for one entry are separate records, joined by “and”; a condition that tells them apart may be missing. Identical values can stand only once. Like-named read-outs stand apart in the source and are kept apart here.

What was measured:
[1] = tested on: mammalian cells; conditions: read-out: Cytotoxicity IC50, ref Zhang et al., [30]; cited from earlier work
[2] = tested on: D. immitis microfilariae; assay: In vitro efficacy against live D. immitis microfilariae (motility, completely immotile %); type: cell-based, Dirofilaria immitis; conditions: for Completely Immotile Microfilariae (%): single experiments
[3] = tested on: DiMT protein; type: biochemical, Dirofilaria immitis

## CO[C@@]12[C@H](COC(N)=O)C3=C(C(=O)C(C)=C(N)C3=O)N1C[C@H]1[C@@H]2N1C (stereo partly drawn) [NSC56410]
[1]
  IC50: 188 µM
[2]; 25 µM, 0 h
  Mean completely Immotile (%): 0%
  Completely Immotile Microfilariae (%): 0%
[2]; 25 µM, 24 h
  Mean completely Immotile (%): 2.33%
  Completely Immotile Microfilariae (%): 2% and 4% and 1%
[2]; 25 µM, 48 h
  Mean completely Immotile (%): 7.67%
  Completely Immotile Microfilariae (%): 8% and 10% and 5%
[2]; 25 µM, 72 h
  Mean completely Immotile (%): 12.5%
  Completely Immotile Microfilariae (%): 15% and 12.5% and 10%
[2]; 25 µM, 96 h
  Mean completely Immotile (%): 30.5%
  Completely Immotile Microfilariae (%): 35% and 29.5% and 27%
[2]; 25 µM, 120 h
  Mean completely Immotile (%): 45%
  Completely Immotile Microfilariae (%): 50% and 44% and 41%
[2]; 50 µM, 0 h
  Mean completely Immotile (%): 0%
  Completely Immotile Microfilariae (%): 0%
[2]; 50 µM, 24 h
  Mean completely Immotile (%): 13%
  Completely Immotile Microfilariae (%): 15% and 11.5% and 12.5%
[2]; 50 µM, 48 h
  Mean completely Immotile (%): 21.33%
  Completely Immotile Microfilariae (%): 23% and 21% and 20%
[2]; 50 µM, 72 h
  Mean completely Immotile (%): 54.33%
  Completely Immotile Microfilariae (%): 56% and 50% and 57%
[2]; 50 µM, 96 h
  Mean completely Immotile (%): 79.33%
  Completely Immotile Microfilariae (%): 80% and 76% and 82%
[2]; 50 µM, 120 h
  Mean completely Immotile (%): 97.67%
  Completely Immotile Microfilariae (%): 100% and 95% and 98%
[2]; 75 µM, 0 h
  Mean completely Immotile (%): 0%
  Completely Immotile Microfilariae (%): 0%
[2]; 75 µM, 24 h
  Mean completely Immotile (%): 38.67%
  Completely Immotile Microfilariae (%): 36% and 40%
[2]; 75 µM, 48 h
  Mean completely Immotile (%): 59.33%
  Completely Immotile Microfilariae (%): 55% and 60% and 63%
[2]; 75 µM, 72 h
  Mean completely Immotile (%): 86%
  Completely Immotile Microfilariae (%): 83% and 88% and 87%
[2]; 75 µM, 96 h
  Mean completely Immotile (%): 98.33%
  Completely Immotile Microfilariae (%): 100% and 95%
[2]; 75 µM, 120 h
  Mean completely Immotile (%): 100%
  Completely Immotile Microfilariae (%): 100%
[2]; 100 µM, 0 h
  Mean completely Immotile (%): 0%
  Completely Immotile Microfilariae (%): 0%
[2]; 100 µM, 24 h
  Mean completely Immotile (%): 61%
  Completely Immotile Microfilariae (%): 60% and 58% and 65%
[2]; 100 µM, 48 h
  Mean completely Immotile (%): 77.67%
  Completely Immotile Microfilariae (%): 75% and 78% and 80%
[2]; 100 µM, 72 h
  Mean completely Immotile (%): 98%
  Completely Immotile Microfilariae (%): 95% and 100% and 99%
[2]; 100 µM, 96 h
  Mean completely Immotile (%): 100%
  Completely Immotile Microfilariae (%): 100%
[2]; 100 µM, 120 h
  Mean completely Immotile (%): 100%
  Completely Immotile Microfilariae (%): 100%
[2]; Dirofilaria immitis, 96 h, read-out: Anti-parasitic EC50 (μM), 96 h post-treatment
  EC50: 32.1 µM
[2]; read-out: Anti-parasitic EC50, 96 h post-treatment
  EC50: 32.2 µM
[2]; up to 120 h of culture
  effect on microfilariae: killing effect
[3]; 50 µM
  Mean Percent Inhibition: 18.0% and 26.7% and 20.5%
  Mean Percent Inhibition, Average: 21.7%
[3]; 100 µM
  Mean Percent Inhibition: 26.6% and 33.3% and 21.3%
  Mean Percent Inhibition, Average: 27.1%
[3]; 150 µM
  Mean Percent Inhibition: 31.0% and 35.0% and 25.0%
  Mean Percent Inhibition, Average: 30.3%
[3]; 200 µM
  Mean Percent Inhibition: 34.6% and 41.9% and 31.9%
  Mean Percent Inhibition, Average: 36.1%
[3]; 250 µM
  Mean Percent Inhibition: 41.2% and 38.8% and 51.8%
  Mean Percent Inhibition, Average: 43.9%
[3]; 300 µM
  Mean Percent Inhibition: 48.3% and 48.6% and 46.0%
  Mean Percent Inhibition, Average: 47.6%
[3]; 350 µM
  Mean Percent Inhibition: 53.8% and 59.3% and 53.7%
  Mean Percent Inhibition, Average: 55.6%
[3]; 400 µM
  Mean Percent Inhibition: 62.5% and 63.8%
  Mean Percent Inhibition, Average: 62.9%
[3]; read-out: IC 50 (μM ± SEM)
  IC50: 300 ± 2.5 µM
